# In patent publication US6737383B1, “Herbicidal oxadiazolidines” (priority 1999, dated 2004):
# Experiments:
# [1] = test system: bedstraw; assay: Test B pre/postemergence bedstraw; format: in vivo, Galium aparine
# In short: (§1)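 Response is a visual 0-to-10 score relative to untreated plants, where 0 means no effect and 10 means complete control, taken twelve to sixteen days after application. Treatments went onto soil at planting and onto foliage of 1- to 4-leaf plants, using a surfactant-containing non-phytotoxic solvent.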
# [2] = test system: blackgrass; assay: Test B pre/postemergence blackgrass; format: in vivo, Alopecurus myosuroides
# In short: as §1
# [3] = test system: surinam grass; assay: Test B pre/postemergence surinam grass; format: in vivo, Brachiaria decumbens
# In short: as §1
# [4] = test system: cocklebur; assay: Test B pre/postemergence cocklebur; format: in vivo, Xanthium strumarium
# In short: as §1
# [5] = test system: corn; assay: Test B pre/postemergence corn; format: in vivo, Zea mays
# In short: as §1
# [6] = test system: morningglory; assay: Test B pre/postemergence morningglory; format: in vivo, Ipomoea hederacea
# In short: as §1
# [7] = test system: pigweed; assay: Test B pre/postemergence pigweed; format: in vivo, Amaranthus retroflexus
# In short: as §1
# [8] = test system: rape; assay: Test B pre/postemergence rape; format: in vivo, Brassica napus
# In short: as §1
# [9] = test system: soybean; assay: Test B pre/postemergence soybean; format: in vivo, Glycine max
# In short: as §1
# [10] = test system: sugar beet; assay: Test B pre/postemergence sugar beet; format: in vivo, Beta vulgaris; conditions: for Plant response rating, Sugarbeets: Rate 250 g/ha
# In short: as §1
# [11] = test system: velvetleaf; assay: Test B pre/postemergence velvetleaf; format: in vivo, Abutilon theophrasti; conditions: for Plant response rating, Velvetleaf: Rate 250 g/ha
# In short: as §1
# [12] = test system: wild oat; assay: Test B pre/postemergence wild oat; format: in vivo, Avena fatua; conditions: for Plant response rating, Wild oats: Rate 250 g/ha
# In short: as §1
# [13] = test system: purple nutsedge; assay: Test B pre/postemergence purple nutsedge; format: in vivo, Cyperus rotundus
# In short: as §1
# [14] = test system: rice; assay: Test B flood test rice; format: in vivo, Oryza sativa
# In short: (§2)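 Flood test on plants grown to the 2-leaf stage; treated plants kept in greenhouse twelve to sixteen days, then visually rated against controls on a 0 (no effect) to 10 (complete control) scale.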
# [15] = test system: smallflower flatsedge; assay: Test B flood test smallflower flatsedge; format: in vivo, Cyperus difformis
# In short: as §2
# [16] = test system: bamyardgrass; assay: Test B flood test barnyardgrass; format: in vivo, Echinochloa crus-galli
# In short: as §2
# [17] = Preemergence, Rate 62 g/ha, scale 0 to 10 (0 no effect, 10 complete control)
# [18] = Preemergence, Rate 125 g/ha, scale 0 to 10 (0 no effect, 10 complete control)
# [19] = Preemergence, Rate 250 g/ha, scale of 0 to 10 where 0 is no effect and 10 is complete control
# [20] = Preemergence, Rate 500 g/ha, scale 0 to 10 (0 no effect, 10 complete control)
# [21] = Rate 500 g/ha, Postemergence, scale 0 to 10, 0 no effect, 10 complete control
# [22] = Postemergence, Rate 125 g/ha, scale of 0 to 10 where 0 is no effect and 10 is complete control
# [23] = Postemergence, Rate 250 g/ha, scale 0 to 10, 0 no effect, 10 complete control
# [24] = Rate 62 g/ha, Postemergence, scale of 0 to 10 where 0 is no effect and 10 is complete control
# [25] = Postemergence, Rate 62 g/ha, scale 0 to 10, 0 is no effect, 10 is complete control
# [26] = Rate 250 g/ha, Postemergence, scale 0 to 10, 0 is no effect, 10 is complete control
# [27] = Preemergence, Rate 125 g/ha, 0 is no effect, 10 is complete control
# [28] = Preemergence, scale of 0 to 10 where 0 is no effect and 10 is complete control
# [29] = Postemergence, scale 0 to 10, 0 is no effect, 10 is complete control
# [30] = Postemergence (flood test species), Rate 125 g/ha, scale of 0 to 10 where 0 is no effect and 10 is complete control
# [31] = Rate 62 g/ha, Postemergence section, flood test species, scale of 0 to 10 where 0 is no effect and 10 is complete control
# [32] = Rate 250 g/ha, Postemergence (flood test), scale 0 to 10, 0 is no effect, 10 is complete control
# [33] = Rate 500 g/ha, listed under Postemergence (flood test species), scale 0 to 10, 0 no effect, 10 complete control
structure (smiles),measurement,setting,value
Cc1nn(C)c(C)c1-n1c(=O)on(C(=O)N(c2ccccc2)C(C)C)c1=O [Compound 120],Bedstraw plant response rating,[1]; [17],0
same,"Plant response rating, Bedstraw",[1]; [18],0
same,"Plant response rating, Bedstraw",[1]; [19],0
same,Bedstraw plant response rating,[1]; [20],0
same,Bedstraw plant response rating,[1]; [21],2
same,Blackgrass plant response rating,[2]; [22],4
same,Blackgrass plant response rating,[2]; [23],6
same,Blackgrass plant response rating,[2]; [17],0
same,"Plant response rating, Blackgrass",[2]; [18],3
same,"Plant response rating, Blackgrass",[2]; [19],7
same,Blackgrass plant response rating,[2]; [20],8
same,Blackgrass plant response rating,[2]; [24],0
same,Blackgrass plant response rating,[2]; [21],8
same,B. signalgrass plant response rating,[3]; [25],0
same,B. signalgrass plant response rating,[3]; [23],7
same,B. signalgrass plant response rating,[3]; [17],0
same,"Plant response rating, B. signalgrass",[3]; [18],3
same,"Plant response rating, B. signalgrass",[3]; [19],6
same,B. signalgrass plant response rating,[3]; [20],8
same,B. signalgrass plant response rating,"[3]; Rate 125 g/ha, Postemergence, scale 0 to 10, 0 no effect, 10 complete control",4
same,B. signalgrass plant response rating,"[3]; Rate 500 g/ha, Postemergence, scale of 0 to 10 where 0 is no effect and 10 is complete control",8
same,Cocklebur plant response rating,[4]; [22],1
same,Cocklebur plant response rating,[4]; [23],3
same,Cocklebur plant response rating,[4]; [17],0
same,"Plant response rating, Cocklebur",[4]; [18],0
same,"Plant response rating, Cocklebur",[4]; [19],0
same,Cocklebur plant response rating,[4]; [20],0
same,Cocklebur plant response rating,[4]; [24],1
same,Cocklebur plant response rating,[4]; [21],4
same,Corn plant response rating,[5]; [22],0
same,Corn plant response rating,[5]; [23],2
same,Corn plant response rating,[5]; [17],0
same,"Plant response rating, Corn",[5]; [18],0
same,"Plant response rating, Corn",[5]; [19],0
same,Corn plant response rating,[5]; [20],0
same,Corn plant response rating,[5]; [24],0
same,Corn plant response rating,[5]; [21],4
same,Morningglory plant response rating,[6]; [22],7
same,Morningglory plant response rating,[6]; [23],8
same,Morningglory plant response rating,[6]; [17],0
same,"Plant response rating, Morningglory",[6]; [18],0
same,"Plant response rating, Morningglory",[6]; [19],0
same,Morningglory plant response rating,[6]; [20],0
same,Morningglory plant response rating,[6]; [24],4
same,Morningglory plant response rating,[6]; [21],8
same,Redroot pigweed plant response rating,[7]; [22],0
same,Redroot pigweed plant response rating,[7]; [17],7
same,"Plant response rating, Redroot pigweed",[7]; [18],8
same,"Plant response rating, Redroot pigweed",[7]; [19],8
same,Redroot pigweed plant response rating,[7]; [20],8
same,Redroot pigweed plant response rating,[7]; [24],0
same,"Plant response rating, Redroot pigweed",[7]; [26],0
same,Redroot pigweed plant response rating,[7]; [21],3
same,Rape plant response rating,[8]; [22],0
same,Rape plant response rating,[8]; [23],0
same,Rape plant response rating,[8]; [17],0
same,"Plant response rating, Rape",[8]; [18],0
same,"Plant response rating, Rape",[8]; [19],0
same,Rape plant response rating,[8]; [20],3
same,Rape plant response rating,[8]; [24],0
same,Rape plant response rating,[8]; [21],0
same,Soybean plant response rating,[9]; [22],3
same,Soybean plant response rating,[9]; [17],0
same,"Plant response rating, Soybean",[9]; [18],0
same,"Plant response rating, Soybean",[9]; [19],0
same,Soybean plant response rating,[9]; [20],0
same,Soybean plant response rating,[9]; [24],2
same,"Plant response rating, Soybean",[9]; [26],4
same,Soybean plant response rating,[9]; [21],6
same,Sugarbeets plant response rating,[10]; [22],0
same,Sugarbeets plant response rating,[10]; [17],0
same,Sugarbeets plant response rating (0 to 10 scale),[10]; [27],2
same,"Plant response rating, Sugarbeets",[10]; [28],4
same,Sugarbeets plant response rating,[10]; [20],7
same,Sugarbeets plant response rating,[10]; [24],0
same,"Plant response rating, Sugarbeets",[10]; [29],0
same,Sugarbeets plant response rating,[10]; [21],0
same,Velvetleaf plant response rating,[11]; [22],0
same,Velvetleaf plant response rating,[11]; [17],0
same,Velvetleaf plant response rating (0 to 10 scale),[11]; [27],0
same,"Plant response rating, Velvetleaf",[11]; [28],0
same,Velvetleaf plant response rating,[11]; [20],3
same,Velvetleaf plant response rating,[11]; [24],0
same,"Plant response rating, Velvetleaf",[11]; [29],2
same,Velvetleaf plant response rating,[11]; [21],6
same,Wild oats plant response rating,[12]; [22],0
same,Wild oats plant response rating,[12]; [17],0
same,Wild oats plant response rating (0 to 10 scale),[12]; [27],2
same,"Plant response rating, Wild oats",[12]; [28],6
same,Wild oats plant response rating,[12]; [20],8
same,Wild oats plant response rating,[12]; [24],0
same,"Plant response rating, Wild oats",[12]; [29],0
same,Wild oats plant response rating,[12]; [21],2
same,Nutsedge plant response rating,[13]; [22],0
same,Nutsedge plant response rating,[13]; [23],0
same,Nutsedge plant response rating,[13]; [17],0
same,"Plant response rating, Nutsedge",[13]; [18],0
same,"Plant response rating, Nutsedge",[13]; [19],0
same,Nutsedge plant response rating,[13]; [20],0
same,Nutsedge plant response rating,[13]; [24],0
same,Rice plant response rating,[14]; [30],0
same,Rice plant response rating,[14]; [31],0
same,"Plant response rating, Rice",[14]; [32],2
same,Rice plant response rating,[14]; [33],3
same,S. Flatsedge plant response rating,[15]; [30],0
same,S. Flatsedge plant response rating,[15]; [31],0
same,"Plant response rating, S. Flatsedge",[15]; [32],0
same,S. Flatsedge plant response rating,[15]; [33],0
same,Barnyardgrass plant response rating,[16]; [25],0
same,Barnyardgrass plant response rating,"[16]; Rate 125 g/ha, Postemergence section (flood test species), scale 0 to 10, 0 no effect, 10 complete control",0
same,Barnyardgrass plant response rating,[16]; [33],0
same,Barnyardgrass plant response rating,"[16]; flood test, listed under Postemergence, Rate 250 g/ha, scale 0 to 10, 0 no effect, 10 complete control",0
